The source of these data is patent publication US20240400561A1, “NOVEL SUBSTITUTED SULFONYLUREA COMPOUNDS AS INHIBITORS OF INTERLEUKIN-1 ACTIVITY” (Viva Star Biosciences (Suzhou) Co., Ltd., priority 2021, published 2024).

Structures are written as SMILES.

T1 sequence (Q96P20 whole entry): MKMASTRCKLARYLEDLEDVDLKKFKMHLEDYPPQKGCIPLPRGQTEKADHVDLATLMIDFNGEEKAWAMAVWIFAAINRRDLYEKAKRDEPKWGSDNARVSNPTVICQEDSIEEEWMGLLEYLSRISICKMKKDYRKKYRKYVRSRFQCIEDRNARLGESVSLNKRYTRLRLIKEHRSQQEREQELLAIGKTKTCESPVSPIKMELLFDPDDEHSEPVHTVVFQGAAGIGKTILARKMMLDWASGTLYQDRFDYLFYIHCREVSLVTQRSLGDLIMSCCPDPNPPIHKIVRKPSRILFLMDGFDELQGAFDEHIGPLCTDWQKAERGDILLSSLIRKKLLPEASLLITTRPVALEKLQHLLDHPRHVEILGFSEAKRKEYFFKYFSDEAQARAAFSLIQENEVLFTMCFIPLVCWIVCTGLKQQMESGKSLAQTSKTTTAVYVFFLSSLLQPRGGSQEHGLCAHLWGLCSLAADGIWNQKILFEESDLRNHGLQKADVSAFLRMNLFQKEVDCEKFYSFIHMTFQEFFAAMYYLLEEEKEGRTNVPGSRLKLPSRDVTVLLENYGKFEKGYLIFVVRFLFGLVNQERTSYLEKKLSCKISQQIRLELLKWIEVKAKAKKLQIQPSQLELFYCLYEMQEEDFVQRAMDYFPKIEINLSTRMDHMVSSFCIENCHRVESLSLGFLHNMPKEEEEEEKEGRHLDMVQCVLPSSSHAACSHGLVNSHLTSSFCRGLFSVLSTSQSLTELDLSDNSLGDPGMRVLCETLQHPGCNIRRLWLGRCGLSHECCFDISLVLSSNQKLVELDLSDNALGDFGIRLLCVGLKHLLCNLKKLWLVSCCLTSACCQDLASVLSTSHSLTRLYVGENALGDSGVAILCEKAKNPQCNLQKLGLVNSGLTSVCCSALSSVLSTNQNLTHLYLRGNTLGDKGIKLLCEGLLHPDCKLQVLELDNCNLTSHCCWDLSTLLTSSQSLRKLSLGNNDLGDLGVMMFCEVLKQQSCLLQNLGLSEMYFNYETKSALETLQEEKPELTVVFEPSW

The assay concerns the target T1, NLRP3 (Homo sapiens, UniProt Q96P20).
T1 construct: Seed THP-1 cells (5.56*10^5 cells/mL) containing 1.0 ug/mL LPS; endogenous in cells; host or cells: THP-1 cells
The assay is described as follows: THP-1 cell assay (LPS priming, nigericin), IL1β release by HTRF; called pyroptosis assay, THP IC50. Conditions: NLRP3 inhibitory activity; THP-1 cells, 1.0 ug/mL LPS, compound 3 hrs, nigericin 5 uM 1 hr, IL1β in supernatant. It counts as cell-based. As for the experimental part: The following method was used for compound screening. • 1. Seed THP-1 cells (5.56*10^5 cells/mL) containing 1.0 ug/mL LPS (SIGMA, L6529) in 45 uL RPMI 1640 medium (without FBS) into 384-well plate (Thermo Scientific, 164688). • 2. Add 5 uL compound (10 doses starting from 5 uM, 1:3 dilution) or vehicle (0.05% DMSO in medium) to the appropriate wells. • 3. Centrifuge the plates at 1000 rpm for 2 mins and incubate for 3 hrs at 37° C., 5% CO2. • 4. Add 5 uL nigericin (MEC, HY-100381) (final conc. 5 uM) to sample wells and positive control wells; add 5 uL RPMI 1640 medium to negative control wells. • 5. Centrifuge plates at 1000 rpm for 2 mins and incubate for 1 hr at 37° C., 5% CO2. • 6. At the end of the incubation period, centrifuge plates at 1000 rpm for 6 mins and transfer 8 uL supernatant into 384-well assay plates (PerkinElmer, 6008280). • 7. Add 8 ul RPMI 1640 medium into each well and spin down for 10 secs. • 8. Prepare the standard solutions and pre-mixed IL1β antibody solution of Human […] kits (PerkinElmer, 62HIL1BPEH) according to the instruction. • 9. Add 16 uL standard solutions into clear wells of 384-well assay plates. • 10. Add 4 uL pre-mixed IL1β antibody solution to all wells including sample wells, positive control wells, negative control wells and standard solutions wells. • 11. Seal the plates, spin down for 10 secs, incubation for overnight at RT and read on an HTRF® compatible reader (BMG LABTECH, PHERAstar FS). • 12. The concentrations of IL1β for treated wells are calculated by the standard curve. • 13. The IC50 data is fitted to a non-liner regression equation (log inhibitor vs. response—Variable slope four parameters)).
For the compound `Cc1cc2c(c(NC(=O)NS(=O)(=O)c3ccn(C4CC(O)C4)n3)c1-c1ccn3nccc3c1)CCC2` (stereo not shown) [Example 76, 1-(3-hydroxycyclobutyl)-N-((6-methyl-5-(pyrazolo[1,5-a]pyridin-5-yl)-2,3-dihydro-1H-inden-4-yl)carbamoyl)-1H-pyrazole-3-sulfonamide], the IC50 is at most 30 nM.

Compound `Cc1cc2c(c(NC(=O)NS(=O)(=O)c3cnn(C4CCC4)c3)c1-c1ccn3nccc3c1)CCC2` [Example 12, 1-cyclobutyl-N-((6-methyl-5-(pyrazolo[1,5-a]pyridin-5-yl)-2,3-dihydro-1H-inden-4-yl)carbamoyl)-1H-pyrazole-4-sulfonamide] came in with an IC50 of at most 30 nM.

`Cc1cc2c(c(NC(=O)NS(=O)(=O)c3ccn(C4CC4)n3)c1-c1ccc3ncnn3c1)CCC2` [Example 97, N-((5-([1,2,4]triazolo[1,5-a]pyridin-6-yl)-6-methyl-2,3-dihydro-1H-inden-4-yl)carbamoyl)-1-cyclopropyl-1H-pyrazole-3-sulfonamide]: the 50% inhibitory concentration (IC50) was at most 30 nM.

`Cc1cc2c(c(NC(=O)NS(=O)(=O)c3ccn(C[C@@H]4CCO4)n3)c1-c1ccn3ncnc3c1)CCC2` [Example 94, (S)—N-((5-([1,2,4]triazolo[1,5-a]pyridin-7-yl)-6-methyl-2,3-dihydro-1H-inden-4-yl)carbamoyl)-1-(oxetan-2-ylmethyl)-1H-pyrazole-3-sulfonamide] came in with a concentration for half-maximal inhibition (IC50) of 30 to 300 nM.

The compound `Cc1cc2c(c(NC(=O)NS(=O)(=O)c3cnn(CC4CC4)c3)c1-c1ccnc3[nH]ccc13)CCC2` [Example 8, 1-(cyclopropylmethyl)-N-((6-methyl-5-(1H-pyrrolo[2,3-b]pyridin-4-yl)-2,3-dihydro-1H-inden-4-yl)carbamoyl)-1H-pyrazole-4-sulfonamide] registered a 50% inhibitory concentration (IC50) of at most 30 nM.

In turn, `Cc1cc2c(c(NC(=O)NS(=O)(=O)c3cc(CC4CC4)n(C)n3)c1-c1ccn3nccc3c1)CCC2` [Example 17, 5-(cyclopropylmethyl)-1-methyl-N-((6-methyl-5-(pyrazolo[1,5-a]pyridin-5-yl)-2,3-dihydro-1H-inden-4-yl)carbamoyl)-1H-pyrazole-3-sulfonamide] showed a 50% inhibitory concentration (IC50) of at most 30 nM.

Regarding `O=C(Nc1c(-c2cnc3ccnn3c2)ccc2c1CCC2)NS(=O)(=O)c1cnn(CC2CC2)c1` [Example 22, 1-(cyclopropylmethyl)-N-((5-(pyrazolo[1,5-a]pyrimidin-6-yl)-2,3-dihydro-1H-inden-4-yl)carbamoyl)-1H-pyrazole-4-sulfonamide], the IC50 was over 2000 nM.

The compound `O=C(Nc1c(-c2ccn3nccc3c2)ccc2c1CCC2)NS(=O)(=O)c1cnn(CC2CC2)c1` [Example 7, 1-(cyclopropylmethyl)-N-((5-(pyrazolo[1,5-a]pyridin-5-yl)-2,3-dihydro-1H-inden-4-yl)carbamoyl)-1H-pyrazole-4-sulfonamide] gave an IC50 of at most 30 nM.

The compound `CC(C)(O)c1csc(S(=O)(=O)NC(=O)Nc2c(-c3ccc4nccn4c3)ccc3c2CCC3)c1` [Example 51, 4-(2-hydroxypropan-2-yl)-N-((5-(imidazo[1,2-a]pyridin-6-yl)-2,3-dihydro-1H-inden-4-yl)carbamoyl)thiophene-2-sulfonamide] yielded a half-inhibitory concentration (IC50) of at most 30 nM.

`Cc1cc2c(c(NC(=O)NS(=O)(=O)c3ccn(CC4CC4)n3)c1-c1ccn3nccc3c1)CCC2` [Example 10, 1-(cyclopropylmethyl)-N-((6-methyl-5-(pyrazolo[1,5-a]pyridin-5-yl)-2,3-dihydro-1H-inden-4-yl)carbamoyl)-1H-pyrazole-3-sulfonamide] displayed a 50% inhibitory concentration (IC50) of at most 30 nM.

With `Cc1cc2c(c(NC(=O)NS(=O)(=O)c3ccn(C4CC4)n3)c1-c1ccn3nccc3c1)CCC2` [Example 1, 1-cyclopropyl-N-((6-methyl-5-(pyrazolo[1,5-a]pyridin-5-yl)-2,3-dihydro-1H-inden-4-yl)carbamoyl)-1H-pyrazole-3-sulfonamide], the concentration for half-maximal inhibition (IC50) is at most 30 nM.

As for `Cc1cc2c(c(NC(=O)NS(=O)(=O)c3ccn([C@@H]4CC[C@@H]4O)n3)c1-c1ccn3nccc3c1)CCC2` (relative stereo) [Example 85, 1-(rel-(1R,2S)-2-hydroxycyclobutyl)-N-((6-methyl-5-(pyrazolo[1,5-a]pyridin-5-yl)-2,3-dihydro-1H-inden-4-yl)carbamoyl)-1H-pyrazole-3-sulfonamide], the half-inhibitory concentration (IC50) is over 2000 nM.

For `Cc1cc2c(c(NC(=O)NS(=O)(=O)c3ccn(C[C@@H]4CCO4)n3)c1-c1ccc3ccnn3c1)CCC2` [Example 95, (S)—N-((6-methyl-5-(pyrazolo[1,5-a]pyridin-6-yl)-2,3-dihydro-1H-inden-4-yl)carbamoyl)-1-(oxetan-2-ylmethyl)-1H-pyrazole-3-sulfonamide], the concentration for half-maximal inhibition (IC50) was 30 to 300 nM.

Take `CC(C)(O)c1csc(S(=O)(=O)NC(=O)Nc2c(-c3ccn4nncc4c3)ccc3c2CCC3)c1` [Example 62, N-((5-([1,2,3]triazolo[1,5-a]pyridin-5-yl)-2,3-dihydro-1H-inden-4-yl)carbamoyl)-4-(2-hydroxypropan-2-yl)thiophene-2-sulfonamide]: the IC50 is 30 to 300 nM.

On to `Cn1ncc2c(-c3ccc4c(c3NC(=O)NS(=O)(=O)c3cc(C(C)(C)O)cs3)CCC4)ccnc21` [Example 48, 4-(2-hydroxypropan-2-yl)-N-((5-(1-methyl-1H-pyrazolo[3,4-b]pyridin-4-yl)-2,3-dihydro-1H-inden-4-yl)carbamoyl)thiophene-2-sulfonamide], for which the half-inhibitory concentration (IC50) fell in the range of 30 to 300 nM.

`Cc1cc2c(c(NC(=O)NS(=O)(=O)c3cnn(CC4CC4)c3)c1-c1ccn3ccnc3c1)CCC2` [Example 18, 1-(cyclopropylmethyl)-N-((5-(imidazo[1,2-a]pyridin-7-yl)-6-methyl-2,3-dihydro-1H-inden-4-yl)carbamoyl)-1H-pyrazole-4-sulfonamide] had an IC50 of at most 30 nM.

Consider `Cc1cc2c(c(NC(=O)NS(=O)(=O)c3cncc(N(C)C4CCC4)c3)c1-c1ccn3nccc3c1)CCC2` [Example 36, 5-(cyclobutyl(methyl)amino)-N-((6-methyl-5-(pyrazolo[1,5-a]pyridin-5-yl)-2,3-dihydro-1H-inden-4-yl)carbamoyl)pyridine-3-sulfonamide], for which the IC50 fell in the range of 30 to 300 nM.

For the compound `CC(C)(O)c1csc(S(=O)(=O)NC(=O)Nc2c(-c3ccnc4c3ccn4C3CCOCC3)ccc3c2CCC3)c1` [Example 56, 4-(2-hydroxypropan-2-yl)-N-((5-(1-(tetrahydro-2H-pyran-4-yl)-1H-pyrrolo[2,3-b]pyridin-4-yl)-2,3-dihydro-1H-inden-4-yl)carbamoyl)thiophene-2-sulfonamide], the concentration for half-maximal inhibition (IC50) fell in the range of 30 to 300 nM.

Consider `Cn1cnc2ccc(-c3ccc4c(c3NC(=O)NS(=O)(=O)c3cc(C(C)(C)O)cs3)CCC4)cc21` [Example 43, 4-(2-hydroxypropan-2-yl)-N-((5-(1-methyl-1H-benzo[d]imidazol-6-yl)-2,3-dihydro-1H-inden-4-yl)carbamoyl)thiophene-2-sulfonamide], for which the half-maximal inhibitory concentration (IC50) was 300 to 1000 nM.

The compound `O=C(Nc1c2c(cc(F)c1-c1ccn3nccc3c1)CCC2)NS(=O)(=O)c1ccn(CC2CC2)n1` [Example 24, 1-(cyclopropylmethyl)-N-((6-fluoro-5-(pyrazolo[1,5-a]pyridin-5-yl)-2,3-dihydro-1H-inden-4-yl)carbamoyl)-1H-pyrazole-3-sulfonamide] had an IC50 of at most 30 nM.

Take `Cc1cc2c(c(NC(=O)NS(=O)(=O)c3ccn(C4CCC4)n3)c1-c1ccn3nccc3c1)CCC2` [Example 23, 1-cyclobutyl-N-((6-methyl-5-(pyrazolo[1,5-a]pyridin-5-yl)-2,3-dihydro-1H-inden-4-yl)carbamoyl)-1H-pyrazole-3-sulfonamide]: the half-inhibitory concentration (IC50) was at most 30 nM.

For the compound `Cc1cc2c(c(NC(=O)NS(=O)(=O)c3cncc(OC4CC4)c3)c1-c1ccn3nccc3c1)CCC2` [Example 34, 5-cyclopropoxy-N-((6-methyl-5-(pyrazolo[1,5-a]pyridin-5-yl)-2,3-dihydro-1H-inden-4-yl)carbamoyl)pyridine-3-sulfonamide], the concentration for half-maximal inhibition (IC50) was at most 30 nM.

As for `Cn1ccc2c(-c3ccc4c(c3NC(=O)NS(=O)(=O)c3cc(C(C)(C)O)cs3)CCC4)ccnc21` [Example 41, 4-(2-hydroxypropan-2-yl)-N-((5-(1-methyl-1H-pyrrolo[2,3-b]pyridin-4-yl)-2,3-dihydro-1H-inden-4-yl)carbamoyl)thiophene-2-sulfonamide], the IC50 was at most 30 nM.

The compound `Cc1cc2c(c(NC(=O)NS(=O)(=O)c3ccnc(N4CCOCC4)c3)c1-c1ccn3nccc3c1)CCC2` [Example 32, N-((6-methyl-5-(pyrazolo[1,5-a]pyridin-5-yl)-2,3-dihydro-1H-inden-4-yl)carbamoyl)-2-morpholinopyridine-4-sulfonamide] displayed an IC50 of at most 30 nM.

Take `CC(C)(O)c1csc(S(=O)(=O)NC(=O)Nc2c(-c3cncc4[nH]ccc34)ccc3c2CCC3)c1` [Example 45, N-((5-(1H-pyrrolo[2,3-c]pyridin-4-yl)-2,3-dihydro-1H-inden-4-yl)carbamoyl)-4-(2-hydroxypropan-2-yl)thiophene-2-sulfonamide]: the half-maximal inhibitory concentration (IC50) was in the range of 300 to 1000 nM.
